ChEMBL document CHEMBL1201862, “PubChem BioAssay data set” (2004)
Counter-ions that a name gives are not always drawn.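 Five concentrations, 48 hours, 96-well plates. Here, GI50 denotes the concentration required for 50% inhibition of growth.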 Active and inactive are the calls of the source. Rule as the data show it: active = GI50 up to about 1.1 µM and inactive = higher.

Assays:
Test in all cases: inhibition of tumour cell growth, NCI panel, 48 h
[1] = system: HT-29
[2] = system: K562
[3] = system: SNB-75
[4] = system: M14
[5] = system: LOX IMVI
[6] = system: IGROV-1
[7] = system: Hs-578T
[8] = system: MDA-N
[9] = system: BT-549
[10] = system: HOP-92
[11] = system: A549
[12] = system: HCT-116
[13] = system: UACC-62
[14] = system: MCF7
[15] = system: NCI-H23
[16] = system: NCI/ADR-RES
[17] = system: RPMI-8226
[18] = system: SK-MEL-2
[19] = system: SF-539
[20] = system: CCRF-CEM

SMILES	GI50 [1]	GI50 [2]	GI50 [3]	GI50 [4]	GI50 [5]	GI50 [6]	GI50 [7]	GI50 [8]	GI50 [9]	GI50 [10]	GI50 [11]	GI50 [12]	GI50 [13]	GI50 [14]	GI50 [15]	GI50 [16]	GI50 [17]	GI50 [18]	GI50 [19]	GI50 [20]
O=C(/C=C/c1ccccc1)CCC1C(=O)NC(=O)NC1=O	> 100 µM (inactive)	97.9 µM (inactive)	> 100 µM (inactive)	> 100 µM (inactive)	> 100 µM (inactive)	> 100 µM (inactive)	> 100 µM (inactive)	> 100 µM (inactive)	> 100 µM (inactive)	> 100 µM (inactive)	> 100 µM (inactive)	> 100 µM (inactive)	> 100 µM (inactive)	> 100 µM (inactive)	> 100 µM (inactive)	> 100 µM (inactive)	43.4 µM (inactive)	> 100 µM (inactive)	> 100 µM (inactive)	–
COc1ccc(NC(=O)CC(=O)n2nc(C)c(/N=N/c3ccc(C)c(C)c3)c2C)cc1	> 100 µM (inactive)	–	39.2 µM (inactive)	> 100 µM (inactive)	50.5 µM (inactive)	29.4 µM (inactive)	25.2 µM (inactive)	> 100 µM (inactive)	> 100 µM (inactive)	16 µM (inactive)	> 100 µM (inactive)	> 100 µM (inactive)	> 100 µM (inactive)	> 100 µM (inactive)	71.4 µM (inactive)	> 100 µM (inactive)	> 100 µM (inactive)	> 100 µM (inactive)	26.5 µM (inactive)	> 100 µM (inactive)
CC(C)C[C@H]1C(=O)N2CCC[C@H]2[C@]2(O)O[C@](NC(=O)[C@@H]3C=C4c5cccc6[nH]c(Br)c(c56)C[C@H]4N(C)C3)(C(C)C)C(=O)N12 [BROMOCRIPTINE MESYLATE]	13.6 µM (inactive)	4.65 µM (inactive)	40.9 µM (inactive)	61.1 µM (inactive)	> 100 µM (inactive)	67.5 µM (inactive)	25.2 µM (inactive)	69.8 µM (inactive)	> 100 µM (inactive)	> 100 µM (inactive)	6.98 µM (inactive)	5.33 µM (inactive)	> 100 µM (inactive)	8.87 µM (inactive)	–	9.35 µM (inactive)	3.8 µM (inactive)	> 100 µM (inactive)	> 100 µM (inactive)	4.56 µM (inactive)
Cc1ccc(S(=O)(=O)N2CCN(CCN(C)CCN3CCN(S(=O)(=O)c4ccc(C)cc4)CC3)CC2)cc1	14.5 µM (inactive)	15 µM (inactive)	–	17.2 µM (inactive)	17.2 µM (inactive)	16.3 µM (inactive)	22.3 µM (inactive)	18.9 µM (inactive)	16.9 µM (inactive)	17.7 µM (inactive)	23.3 µM (inactive)	17 µM (inactive)	17.9 µM (inactive)	17.7 µM (inactive)	22.6 µM (inactive)	20 µM (inactive)	16.6 µM (inactive)	18.8 µM (inactive)	16.4 µM (inactive)	18.7 µM (inactive)
CCCCCCOc1ccc(NC2=C(Cl)C(=O)c3c(O)ccc(O)c3C2=O)cc1	2.11 µM (inactive)	3.1 µM (inactive)	4.06 µM (inactive)	2.01 µM (inactive)	1.67 µM (inactive)	–	3.35 µM (inactive)	2.99 µM (inactive)	3.25 µM (inactive)	2.72 µM (inactive)	3.27 µM (inactive)	1.6 µM (inactive)	2.58 µM (inactive)	0.414 µM (active)	2.4 µM (inactive)	2.55 µM (inactive)	1.4 µM (inactive)	2.96 µM (inactive)	2.4 µM (inactive)	2.49 µM (inactive)
CC(=N/NC(=S)N1CCCCC1)/C(C)=N\NC(=S)N1CCCCC1	1.93 µM (inactive)	2.25 µM (inactive)	1.45 µM (inactive)	2.19 µM (inactive)	3.15 µM (inactive)	1.58 µM (inactive)	1.85 µM (inactive)	2.47 µM (inactive)	1.92 µM (inactive)	1.48 µM (inactive)	1.73 µM (inactive)	2.34 µM (inactive)	1.35 µM (inactive)	1.91 µM (inactive)	2.13 µM (inactive)	2.42 µM (inactive)	2.19 µM (inactive)	1.97 µM (inactive)	2.35 µM (inactive)	–
CC1CCC2C(C)C(OC(=O)CCC(=O)O)OC3OC4(C)CCC1C32OO4 (configuration not stated)	3.52 µM (inactive)	1.32 µM (inactive)	19.3 µM (inactive)	17.2 µM (inactive)	1.06 µM (active)	10.4 µM (inactive)	16 µM (inactive)	2.65 µM (inactive)	11.2 µM (inactive)	11.6 µM (inactive)	11.9 µM (inactive)	0.759 µM (active)	6.15 µM (inactive)	4.5 µM (inactive)	–	4.62 µM (inactive)	0.246 µM (active)	3.86 µM (inactive)	11 µM (inactive)	3.78 µM (inactive)
CC[C@@H]1CC[C@@H]2[C@H](CC[C@]3(C)[C@@H](OS(=O)(=O)c4ccc(C)cc4)CC[C@@H]23)[C@H]1COS(=O)(=O)c1ccc(C)cc1	> 100 µM (inactive)	> 100 µM (inactive)	–	> 100 µM (inactive)	> 100 µM (inactive)	> 100 µM (inactive)	> 100 µM (inactive)	> 100 µM (inactive)	> 100 µM (inactive)	> 100 µM (inactive)	> 100 µM (inactive)	> 100 µM (inactive)	–	> 100 µM (inactive)	–	> 100 µM (inactive)	> 100 µM (inactive)	–	> 100 µM (inactive)	> 100 µM (inactive)
Clc1ccc(-c2noc(CN3CCCCC3)n2)cc1	46.2 µM (inactive)	55.8 µM (inactive)	> 100 µM (inactive)	> 100 µM (inactive)	–	> 100 µM (inactive)	> 100 µM (inactive)	> 100 µM (inactive)	> 100 µM (inactive)	> 100 µM (inactive)	> 100 µM (inactive)	90.2 µM (inactive)	> 100 µM (inactive)	> 100 µM (inactive)	> 100 µM (inactive)	46.5 µM (inactive)	43.9 µM (inactive)	> 100 µM (inactive)	> 100 µM (inactive)	77.1 µM (inactive)
CCOC(=O)C1C(c2ccc(OC)cc2)c2c(n[nH]c2O)CC1(O)OCC (configuration not stated)	> 100 µM (inactive)	–	> 100 µM (inactive)	> 100 µM (inactive)	> 100 µM (inactive)	> 100 µM (inactive)	> 100 µM (inactive)	> 100 µM (inactive)	> 100 µM (inactive)	> 100 µM (inactive)	> 100 µM (inactive)	> 100 µM (inactive)	> 100 µM (inactive)	> 100 µM (inactive)	> 100 µM (inactive)	> 100 µM (inactive)	> 100 µM (inactive)	> 100 µM (inactive)	> 100 µM (inactive)	> 100 µM (inactive)
